PMC9923724, “Half sandwich-type osmium, ruthenium, iridium and rhodium complexes with bidentate glycosyl heterocyclic ligands induce cytostasis in platinum-resistant ovarian cancer cells and bacteriostasis in Gram-positive multiresistant bacteria” (Frontiers in Chemistry, 2023)
Several values for one entry are separate records, joined by “and”; a condition that tells them apart may be missing. Identical values can stand only once.

Legend:
[1] = tested on: A2780 ovarian cancer cells; assay: MTT reduction assay (rapid toxicity, 4 h) on A2780 cells; assay type: cell-based; conditions: 4 h treatment
Description: (§1) First, we assessed a set of osmium complexes (similar to Ia [[Kacsir et al., 2022]) in Figure 1] and their sugar-derived ligands, in which the benzoyl protective groups on the carbohydrate moiety were replaced by aliphatic acyl groups of different chain length (straight chain C3-C7–CO). Osmium was selected as a central ion, since osmium complexes had the best biological activity in our previous studies ([Balázs et al., 2022]; [Kacsir et al., 2022]). These compounds were tested on A2780 ovarian cancer cells for toxicity and cytostasis. The therapy of ovarian cancer is centered around platinum compounds ([Brown et al., 2019]; [Sipos et al., 2021]), therefore, it was logical to use a cellular model of ovarian cancer for the initial testing of the compounds. Toxicity was assessed using the MTT assay that measures the activity of mitochondrial complex I. We chose 4 h long treatment as in an MTT assay this time point is suitable to detect rapid, direct toxicity. Cytostasis was assessed after 48 h of treatment using the SRB assay that assesses protein content that corresponds to cell count. The characteristics of the compounds are detailed in Table 2.
(§2) 3 × 10^3 A2780 cells, were plated to 96 well plates. Cells were treated with the compounds in the concentrations indicated for either 4 h for an MTT assay or for 48 h for an SRB assay. Data is represented as average ± SD, from three biological replicates; individual assays were performed in duplicates. Values were normalized for vehicle treated cells, absorbance for vehicle treated cells equals to 1. […] Except for the Os-6 complex, Two-way ANOVA test was performed and all values were compared with each other (Tukey’s post hoc test). […] Non-linear regression was performed on the data.
(§3) 3 × 10^3 A2780 cells, 2 × 10^3 ID8 cells and 4 × 10^3 primary fibroblasts were plated to 96 well plates. Cells were treated with the compounds in the concentrations indicated for either 4 h for an MTT assay or for 48 h for an SRB assay. Data is represented as average ± SD, from three biological replicates; individual assays were performed in duplicates. Values were normalized for vehicle treated cells, absorbance for vehicle treated cells equals to 1. Statistical significance was assessed using two-way ANOVA test comparing the free ligand and each complex as a complex-ligand pair. Before the test normality was assessed using the D’Agostino-Pearson test. The ID8 SRB Ir-7+L-7 dataset had lognormal distribution. […] All other datasets had normal distribution. For better visibility the p values are presented in an excel sheet at https://figshare.com/s/2c942a812caea8869a67. Non-linear regression was performed on the A2780 SRB and the ID8 SRB datasets.
MTT reduction assay measures the activity of mitochondrial complex I and can be used to detect toxicity ([Virág et al., 1998]; [Henslee et al., 2016]). The assay was performed similar to ([Bakondi et al., 2003]). Briefly, cells were plated in 96 well plates the day before the assay. Cells were treated with the compounds for 4 h, then MTT was added in 0.5 mg/ml final concentration and cells were incubated at 37°C in a cell incubator. Culture media was removed and the reduced MTT dye was dissolved in dimethyl-sulfoxide (DMSO) and plates were measured in a plate photometer (Thermo Scientific Multiscan GO spectrophotometer, Waltham, MA, United States) at 540 nm. On each plate wells were designed to contain untreated/vehicle-treated cells. In calculations the readings for these wells was considered as 1 and all readings were expressed relative to these values.

[2] = tested on: Staphylococcus aureus (ATCC29213); assay: Broth microdilution MIC, Staphylococcus aureus reference strain; assay type: cell-based; conditions: for MIC, Reference S. aureus: Staphylococcus aureus ATCC29213, 24 h; for MIC (μM) (S. aureus), Figure 11: reference strain ATCC29213
Description: (§4) The MIC values of the complexes were determined against the reference strains of S. aureus (ATCC29213) and E. faecalis. (ATCC29212) and against clinical VRE and MRSA isolates by microdilution assays (repeated at least twice in duplicates) as described in Materials and Methods. The numbers indicate how many isolates were susceptible to the compound out of those tested; i.e., 1/6 stands for 1 isolate was susceptible out of 6 tested. […] Cells were harvested and lysed. Cellular proteins was separated on a 10% SDS-PAGE gel and were blotted. Blots were probed with 4HNE antibody (top blot), the lower blot was stained with amido black. Arrows point at band of interest. Experiments were repeated three times and a representative blot is shown. On the blots brightness and contrast were adjusted. […] Each was matched to a substance and strain by its position over the x-axis categories. / Ir-7: ND and 0/3 (left plot) and ND and 0/6 (right plot) were matched to E. faecalis/VRE and S. aureus/MRSA by position only.
(§5) We used the reference strains of Staphylococcus aureus (ATCC29213), and Enterococcus faecalis (ATCC29212) that were purchased from ATCC (Manassas, VA, United States).
(§6) Microdilution experiments were performed according to the standards of EUCAST ([EUCAST, 2021]). […] The inoculated plates were incubated for 24 h at 37°C then were assessed visually. […] All experiments were performed at least twice in duplicates.

[3] = tested on: A2780 ovarian cancer cells; assay: SRB assay (cytostasis, 48 h) on A2780 cells; assay type: cell-based; conditions: 48 h treatment
Description: as §1, §2, §3
The assay was performed similar to ([Kovács et al., 2019]). Cells were seeded in 96 well plates the day before the assay. Cells were treated with the compounds for 48 h. Cells were fixed with 10% trichloroacetic acid (TCA). Fixed cells were washed in distilled water 3 times followed by staining with SRB (0.4 m/V% dissolved in 1% acetic acid) for 10 min. Stained cells were washed in 1% acetic acid 5 times; acetic acid was removed and cells were left to dry. Protein-bound SRB was released by adding 100 µl 10 mM Tris base. Plates were measured in a plate photometer (Thermo Scientific Multiscan GO spectrophotometer, Waltham, MA, United States) at 540 nm. On each plate wells were designed to contain vehicle-treated cells. In calculations the readings for these wells was considered as 1 and all readings were expressed relative to these values.
Statistical analysis was performed using 8.0.1 version of Graphpad Prism. Values were tested for normal distribution using the D’Agostino and Pearson normality test. When necessary, values were log normalized or were normalized using the Box-Cox normalization method ([Box and Cox, 1964]) as indicated in the figure captions. […]

[4] = Determination of the distribution coefficients (logD); assay type: physicochemical; conditions: distribution coefficient
[5] = tested on: methicillin-resistant Staphylococcus aureus (MRSA) clinical isolates; assay: Broth microdilution MIC, clinical MRSA isolates; assay type: cell-based; conditions: for MIC against clinical MRSA isolates (as a group): 6 clinical MRSA isolates; for MRSA isolates susceptible out of those tested: 6 isolates tested, susceptible = MIC up to 40 µM; for MIC, MRSA 20 426: clinical isolate 20 426, blood, 2020; for MIC, MRSA 24 035: clinical isolate 24 035, wound; for MIC, MRSA 24 035 / MIC, MRSA 24 268 / MIC, MRSA 24 272 / MIC, MRSA 24 328 / MIC, MRSA 24 408: 2018; for MIC, MRSA 24 268: clinical isolate 24 268, throat; for MIC, MRSA 24 272: clinical isolate 24 272, throat; for MIC, MRSA 24 328: clinical isolate 24 328, throat; for MIC, MRSA 24 408: clinical isolate 24 408, bronchial
Description: as §4
(§7) We used a set of clinical isloates of S. aureus and E. faecium that were collected at the Medical Center of the University of Debrecen (Hungary) between 01. 01. 2018.—31. 12. 2020. The clinical isolates were identified using a Microflex MALDI-TOF mass spectrometer (Bruker, Billerica, MA, United States). Antibiotic susceptibility of the isolates was tested following the European Committee on Antimicrobial Susceptibility Testing ([EUCAST, 2021]) guidelines valid at the time of collection.
as §6

[6] = tested on: vancomycin-resistant Enterococcus (VRE) clinical isolates; assay: Broth microdilution MIC, clinical VRE isolates; assay type: cell-based, E. faecium; conditions: for MIC against clinical VRE isolates (as a group): 3 clinical VRE isolates; for VRE isolates susceptible out of those tested: 3 isolates tested, susceptible = MIC up to 40 µM; for MIC, VRE 25 051: clinical isolate 25 051, nephrostoma; for MIC, VRE 25 051 / MIC, VRE 25 498 / MIC, VRE 27 085: 2018; for MIC, VRE 25 498: clinical isolate 25 498, rectal swab; for MIC, VRE 27 085: clinical isolate 27 085, wound
Description: as §4, §7, §6

[7] = tested on: Enterococcus faecalis (ATCC29212); assay: Broth microdilution MIC, Enterococcus faecalis reference strain; assay type: cell-based; conditions: for MIC, Reference E. faecalis: Enterococcus faecalis ATCC29212, 24 h; for MIC (μM) (E. faecalis), Figure 11: reference strain ATCC29212, printed in the picture
Description: as §4, §5, §6

SMILES | A2780 MTT Max. (maximal inhibition) [1] [%] | MIC, Reference S. aureus [2] | A2780 SRB Max. (maximal inhibition) [3] [%] | LogD [4] | MRSA isolates susceptible out of those tested [5] | MIC, MRSA 20 426 [5] | MIC, MRSA 24 035 [5] | MIC, MRSA 24 268 [5] | MIC, MRSA 24 272 [5] | MIC, MRSA 24 328 [5] | MIC, MRSA 24 408 [5] | VRE isolates susceptible out of those tested [6] | MIC, VRE 25 051 [6] | MIC, VRE 25 498 [6] | MIC, VRE 27 085 [6] | MIC, Reference E. faecalis [7] | IC50 [3] [µM] | other results
CCCCCCCC(=O)OCC1OC(n2cc(-c3ccccn3)nn2)C(OC(=O)CCCCCCC)C(OC(=O)CCCCCCC)C1OC(=O)CCCCCCC.Cc1ccc(C(C)C)cc1.F[P-](F)(F)(F)(F)F.[Cl][Os+] (mixture of isomers) [Os-6] | 76.9 | 40< µM | 88.4 | 2.8 | 0/6 | 40< µM | 40< µM | 40< µM | 40< µM | 40< µM | 40< µM | 0/3 | 40< µM | 40< µM | 40< µM | 40< µM |  | IC50 [1]: 16.5 µM; MIC (μM) (S. aureus), Figure 11 [2]: ND (ND—not detected, MIC>40 µM); MIC against clinical MRSA isolates (as a group) [5]: > 40 µM; MIC against clinical VRE isolates (as a group) [6]: > 40 µM; MIC (μM) (E. faecalis), Figure 11 [7]: ND (ND—not detected, MIC>40 µM)
CCCC(=O)OC[C@H]1O[C@@H](n2cc(-c3ccccn3)nn2)[C@H](OC(=O)CCC)[C@@H](OC(=O)CCC)[C@@H]1OC(=O)CCC [L-2] |  |  | 21.2 |  |  |  |  |  |  |  |  |  |  |  |  |  |  | 
CCCCC(=O)OCC1OC(n2cc(-c3ccccn3)nn2)C(OC(=O)CCCC)C(OC(=O)CCCC)C1OC(=O)CCCC.Cc1ccc(C(C)C)cc1.F[P-](F)(F)(F)(F)F.[Cl][Os+] (mixture of isomers) [Os-3] | 84.4 | 2.5—10 µM and 2.5 µM | >90 | 2.6 | 6/6 | 5 µM | 2.5 µM | 2.5 µM | 5 µM | 2.5 µM | 5 µM | 3/3 | 5 µM | 5 µM | 5 µM | 2.5—10 µM and 5 µM | 2.1 | 
CCCCC(=O)OC[C@H]1O[C@@H](n2cc(-c3ccccn3)nn2)[C@H](OC(=O)CCCC)[C@@H](OC(=O)CCCC)[C@@H]1OC(=O)CCCC [L-3] |  |  | 32.0 |  |  |  |  |  |  |  |  |  |  |  |  |  |  | 
CCCCCCC(=O)OC[C@H]1O[C@@H](n2cc(-c3ccccn3)nn2)[C@H](OC(=O)CCCCCC)[C@@H](OC(=O)CCCCCC)[C@@H]1OC(=O)CCCCCC [L-5] |  |  | 28.5 |  |  |  |  |  |  |  |  |  |  |  |  |  |  | 
CCCCCCC(=O)OCC1OC(n2cc(-c3ccccn3)nn2)C(OC(=O)CCCCCC)C(OC(=O)CCCCCC)C1OC(=O)CCCCCC.Cc1ccc(C(C)C)cc1.F[P-](F)(F)(F)(F)F.[Cl][Os+] (mixture of isomers) [Os-5] | 83.4 | 40< µM | >90 | 2.7 | 0/6 | 40< µM | 40< µM | 40< µM | 40< µM | 40< µM | 40< µM | 0/3 | 40< µM | 40< µM | 40< µM | 40< µM | 15.9 | MIC (μM) (S. aureus), Figure 11 [2]: ND (ND—not detected, MIC>40 µM); MIC against clinical MRSA isolates (as a group) [5]: > 40 µM; MIC against clinical VRE isolates (as a group) [6]: > 40 µM; MIC (μM) (E. faecalis), Figure 11 [7]: ND (ND—not detected, MIC>40 µM)
CCCC(=O)OCC1OC(n2cc(-c3ccccn3)nn2)C(OC(=O)CCC)C(OC(=O)CCC)C1OC(=O)CCC.Cc1ccc(C(C)C)cc1.F[P-](F)(F)(F)(F)F.[Cl][Os+] (mixture of isomers) [Os-2] | 88 | 2.5—10 µM and 2.5 µM | >90 | 2.5 | 6/6 | 2.5 µM | 2.5 µM | 5 µM | 5 µM | 2.5 µM | 5 µM | 3/3 | 10 µM | 10 µM | 10 µM |  | 6.23 | 
CCCCCC(=O)OC[C@H]1O[C@@H](n2cc(-c3ccccn3)nn2)[C@H](OC(=O)CCCCC)[C@@H](OC(=O)CCCCC)[C@@H]1OC(=O)CCCCC [L-4] |  |  | 26.9 |  |  |  |  |  |  |  |  |  |  |  |  |  |  | 
O=C(OC[C@H]1O[C@@H](n2cc(-c3ccc4ccccc4n3)nn2)[C@H](OC(=O)c2ccccc2)[C@@H](OC(=O)c2ccccc2)[C@@H]1OC(=O)c1ccccc1)c1ccccc1 [L-7, 1-(2’,3’,4’,6’-tetra-O-benzoyl-β-D-glucopyranosyl)-4-(quinolin-2-yl)-1,2,3,-triazole] |  |  | 16.9 |  |  |  |  |  |  |  |  |  |  |  |  |  |  | 
